Data: paper PMC8742467, “Therapeutical interference with the epigenetic landscape of germ cell tumors: a comparative drug study and new mechanistical insights” (Clinical Epigenetics, 2022)

Columns and labels:
[1] = test system: urothelial carcinoma (UC) cell lines; assay: XTT cell viability assay, UC cell lines; type: cell-based, Human; conditions: 48 h, mean of three cell lines
Experimental: (§1) The […] (XTT) assays were performed as described previously. In summary, for GCT and fibroblast cell lines 5 × 10^3 cells (3 × 10^3 for UC, PCa and RCC cell lines) per 96-well were seeded and different drug concentrations (see Additional file 2: Fig. S2, Additional file 3: Fig. S3) or corresponding solvents were added to the cells the following day. For drug details see Additional file 12: Table S2 C. Each condition was analyzed in four technical replicates and EC50 values were calculated by GraphPad Prism v8.

[2] = test system: renal cell carcinoma (RCC) cell lines; assay: XTT cell viability assay, RCC cell lines; type: cell-based; conditions: Homo sapiens, 48 h, mean of three cell lines
Experimental: as §1

GCT cells = assay: Flow cytometry cell cycle (PI), GCT cells; type: cell-based, Human; conditions: EC50, 16 h
Outline: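 Apoptosis: cells stained with Annexin V-FITC plus 15 µg PI in binding buffer, 15 min dark at room temperature. Cell cycle: cells fixed in ice-cold 70% ethanol, stained with 2 µg/ml PI and 200 µg/ml RNaseA in PBS. At least 5 × 10^4 cells counted by flow cytometry.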

GCT cell lines = assay: XTT cell viability assay, GCT cell lines (pre-screen / summary); type: cell-based, Human
Outline: (§2)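 GCT cells seeded at 5 × 10^3/well, UC lines at 3 × 10^3/well; drug dilution series or solvent added next day. Viability read by XTT, four technical replicates per condition; EC50 calculated from concentration–response data.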

[3] = test system: CC (choriocarcinoma) cell lines JAR, JEG-3, BeWo; assay: XTT cell viability assay, CC cell lines; type: cell-based; conditions: Homo sapiens; after 48 h, mean per entity
Experimental: as §1

[4] = test system: histone modifications in 2102EP cells; assay: Mass spectrometry analysis of histone modifications (Mod Spec); type: cell-based, Human
Outline: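 2102EP cells were treated for 16 h with EC50 concentrations of Quisinostat, JIB-04, Chaetocin, MZ-1, LP99, PRT4165 or GSK343, with DMSO as solvent control. After trypsin harvest, histones were extracted and analysed by mass spectrometry. Raw data were converted to z-scores.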

[5] = test system: prostate cancer (PCa) cell lines; assay: XTT cell viability assay, PCa cell lines; type: cell-based, Human; conditions: 48 h, mean of three cell lines
Experimental: as §1

TCam-2 (SE) = assay: XTT cell viability assay, TCam-2; type: cell-based; conditions: Homo sapiens; after 48 h, XTT, n = 4; read-out: EC50 colour/symbol code, SE TCam-2
Outline: as §2

[6] = 2102EP cells, Mod Spec raw data
[7] = 2102EP, EC50, 16 h, vs solvent control

SMILES: Cn1cc(CNCC2CCN(c3ncc(C(=O)NO)cn3)CC2)c2ccccc21 [Quisinostat]
- EC50 ([1]; Homo sapiens): 17.2 nM
- EC50 [1]: 17.2 nM
- EC50 [2]: > 50 nM
- cell cycle phase accumulation in GCT cells (GCT cells): accumulation in the G2/M phase
- EC50 (GCT cell lines; Homo sapiens, GCT, cell line not stated, read-out: EC50 concentration used for low dose qRT-PCR): 1.76 nM
- EC50 / effective concentration in words (GCT cell lines; first pre-screen, SE and EC proxies TCam-2 and 2102EP, XTT): nanomolar range
- EC50 [3]: 6.94 nM
- H1.4: K25AC, % of peptide pool [4, 6]: 0.02419%
- H1.4: K25ME1, % of peptide pool [4, 6]: 1.754%
- H1.4: K25ME2, % of peptide pool [4, 6]: 0.1017%
- H1.4: K25ME3, % of peptide pool [4, 6]: 0.01896%
- H1.4: K25UN, % of peptide pool [4, 6]: 98.1009%
- H2A1: K13AC, % of peptide pool [4, 6]: 0.02445%
- H2A1: K13UN, % of peptide pool [4, 6]: 99.9755%
- H2A1: K15AC, % of peptide pool [4, 6]: 0.008356%
- H2A1: K15UB, % of peptide pool [4, 6]: 0%
- H2A1: K15UN, % of peptide pool [4, 6]: 99.9916%
- H2A3: K13AC, % of peptide pool [4, 6]: 0.03116%
- H2A3: K13UN, % of peptide pool [4, 6]: 99.9688%
- H2A3: K15AC, % of peptide pool [4, 6]: 0.09989%
- H2A3: K15UB, % of peptide pool [4, 6]: 0%
- H2A3: K15UN, % of peptide pool [4, 6]: 99.9001%
- H2A: K5AC, % of peptide pool [4, 6]: 30.5025%
- H2A: K5UN, % of peptide pool [4, 6]: 69.4975%
- H2A: K9AC, % of peptide pool [4, 6]: 4.727%
- H2A: K9UN, % of peptide pool [4, 6]: 95.2735%
- H2A: K36AC, % of peptide pool [4, 6]: 0.03623%
- H2A: K36UN, % of peptide pool [4, 6]: 99.9638%
- H3: K9AC, % of peptide pool [4, 6]: 3.623%
- H3: K9ME1, % of peptide pool [4, 6]: 30.7914%
- H3: K9ME2, % of peptide pool [4, 6]: 27.5315%
- H3: K9ME3, % of peptide pool [4, 6]: 2.296%
- H3: K9UN, % of peptide pool [4, 6]: 35.7584%
- H3: K14AC, % of peptide pool [4, 6]: 58.3927%
- H3: K14UN, % of peptide pool [4, 6]: 41.6073%
- H3: K18AC, % of peptide pool [4, 6]: 38.2845%
- H3: K18ME1, % of peptide pool [4, 6]: 0.1021%
- H3: K18UN, % of peptide pool [4, 6]: 61.6134%
- H3: K23AC, % of peptide pool [4, 6]: 46.4415%
- H3: K23ME1, % of peptide pool [4, 6]: 0.02903%
- H3: K23UN, % of peptide pool [4, 6]: 53.5295%
- H3: K56AC, % of peptide pool [4, 6]: 0.1713%
- H3: K56ME1, % of peptide pool [4, 6]: 1.011%
- H3: K56UN, % of peptide pool [4, 6]: 98.8174%
- H3: K64AC, % of peptide pool [4, 6]: 0.03095%
- H3: K64UN, % of peptide pool [4, 6]: 99.9691%
- H3: K79AC, % of peptide pool [4, 6]: 0.6776%
- H3: K79ME1, % of peptide pool [4, 6]: 18.2028%
- H3: K79ME2, % of peptide pool [4, 6]: 5.702%
- H3: K79ME3, % of peptide pool [4, 6]: 13.4482%
- H3: K79UN, % of peptide pool [4, 6]: 61.9691%
- H3: K122AC, % of peptide pool [4, 6]: 0.1638%
- H3: K122UN, % of peptide pool [4, 6]: 99.8362%
- H3: Q19ME1, % of peptide pool [4, 6]: 0.00624%
- H3: Q19UN, % of peptide pool [4, 6]: 99.9938%
- H3: Q55ME1, % of peptide pool [4, 6]: 0.3096%
- H3: Q55UN, % of peptide pool [4, 6]: 99.6904%
- H3: R42ME2, % of peptide pool [4, 6]: 2.863%
- H3: R42UN, % of peptide pool [4, 6]: 97.1374%
- H3: R49ME2, % of peptide pool [4, 6]: 6.457%
- H3: R49UN, % of peptide pool [4, 6]: 93.5429%
- H3R2UN: K4AC, % of peptide pool [4, 6]: 0.2031%
- H3R2UN: K4ME1, % of peptide pool [4, 6]: 23.4933%
- H3R2UN: K4ME2, % of peptide pool [4, 6]: 0.2912%
- H3R2UN: K4ME3, % of peptide pool [4, 6]: 0.05363%
- H3R2UN: K4UN, % of peptide pool [4, 6]: 75.9587%
- H3R2UN: Q5ME1, % of peptide pool [4, 6]: 0.06645%
- H3R2UN: Q5UN, % of peptide pool [4, 6]: 99.9336%
- H3.1: K27AC, % of peptide pool [4, 6]: 8.049%
- H3.1: K27ME1, % of peptide pool [4, 6]: 45.2407%
- H3.1: K27ME2, % of peptide pool [4, 6]: 17.0794%
- H3.1: K27ME3, % of peptide pool [4, 6]: 2.551%
- H3.1: K27UN, % of peptide pool [4, 6]: 27.08%
- H3.1: K36AC, % of peptide pool [4, 6]: 0.2956%
- H3.1: K36ME1, % of peptide pool [4, 6]: 12.4481%
- H3.1: K36ME2, % of peptide pool [4, 6]: 50.5827%
- H3.1: K36ME3, % of peptide pool [4, 6]: 20.2944%
- H3.1: K36UN, % of peptide pool [4, 6]: 16.3791%
- H3.3: K27AC, % of peptide pool [4, 6]: 13.7879%
- H3.3: K27M, % of peptide pool [4, 6]: 0%
- H3.3: K27ME1, % of peptide pool [4, 6]: 42.1096%
- H3.3: K27ME2, % of peptide pool [4, 6]: 14.1824%
- H3.3: K27ME3, % of peptide pool [4, 6]: 5.8099%
- H3.3: K27UN, % of peptide pool [4, 6]: 24.1102%
- H3.3: K36AC, % of peptide pool [4, 6]: 4.027%
- H3.3: K36ME1, % of peptide pool [4, 6]: 9.936%
- H3.3: K36ME2, % of peptide pool [4, 6]: 52.9264%
- H3.3: K36ME3, % of peptide pool [4, 6]: 21.2958%
- H3.3: K36UN, % of peptide pool [4, 6]: 11.8156%
- H4: K5AC, % of peptide pool [4, 6]: 13.3396%
- H4: K5UN, % of peptide pool [4, 6]: 86.6604%
- H4: K8AC, % of peptide pool [4, 6]: 32.6787%
- H4: K8UN, % of peptide pool [4, 6]: 67.3213%
- H4: K12AC, % of peptide pool ([4]; 2102EP cells, Mod Spec raw data, histone H4 K12 acetylated): 21.736 % of peptide pool
- H4: K12UN, % of peptide pool ([4]; 2102EP cells, Mod Spec raw data, histone H4 K12 unmodified): 78.264 % of peptide pool
- H4: K16AC, % of peptide pool ([4]; 2102EP cells, Mod Spec raw data, histone H4 K16 acetylated): 69.3546 % of peptide pool
- H4: K16UN, % of peptide pool ([4]; 2102EP cells, Mod Spec raw data, histone H4 K16 unmodified): 30.6454 % of peptide pool
- H4: K20AC, % of peptide pool ([4]; 2102EP cells, Mod Spec raw data, histone H4 K20 acetylated): 15.0365 % of peptide pool
- H4: K20ME2, % of peptide pool ([4]; 2102EP cells, Mod Spec raw data, histone H4 K20 dimethylated): 57.6801 % of peptide pool
- H4: K20ME1, % of peptide pool ([4]; 2102EP cells, Mod Spec raw data, histone H4 K20 monomethylated): 5.018 % of peptide pool
- H4: K20ME3, % of peptide pool ([4]; 2102EP cells, Mod Spec raw data, histone H4 K20 trimethylated): 3.192 % of peptide pool
- H4: K20UN, % of peptide pool ([4]; 2102EP cells, Mod Spec raw data, histone H4 K20 unmodified): 19.0735 % of peptide pool
- change of histone modifications of the expected mode of action (Mod Spec) [4, 7]: strong accumulation of histone acetylation on histones H3 and H4
- off-target changes of histone modifications (Mod Spec) [4, 7]: increase in histone methylation (H3K4me1, H3.3K27me3, H3K56me1, H4K20me1/3)
- EC50 ([5]; Homo sapiens): 22.2 nM
- EC50 [5]: 22.2 nM
- EC50 (TCam-2 (SE)): < 1000 nM
